Assay results reported in patent US20140128349A1 (Indiana University School of Medicine, priority 2012, published 2014).
“Also recorded” adds a separate entry of the source.

Tests used:
[1] = patients with prostate cancer bone metastases, regardless of radiographic phenotype; cited from earlier work
RyR1 [2] = assay: RyR1 oxidation/nitrosylation/calstabin1 immunoblot of EDL from PC-3 tumor bearing mice; format: in vivo; settings: mice with prostate cancer metastatic to bone
Protocol: (§1) In embodiments B and C are shown decreased skeletal muscle cross-sectional area in tumor-bearing mice determined by Micro-CT as described herein. In embodiments D and E are shown decreased body weight (D) and decreased Grip strength (E) in PC-3 tumor bearing mice. […] In embodiment J is shown that RyR1 is oxidized and there is decreased calstabin1 in the RyR1 complex from, skeletal muscle (EDL) from mice with metastatic prostate cancer. RyR1 was immunoprecipitated from 250 μg of EDL homogenate using an anti-RyR antibody (4 μg 5029 Ab), and the immunoprecipitates were separated on SDS-PAGE gels (6% for RyR. 15% for Calstabin). All immunoblots were developed and quantified with the Odyssey system (LI-COR, Inc., Lincoln, Nebr.) using IR labeled anti-mouse and anti-Rabbit IgG (1:10,000 dilution) secondary antibodies. […] Quantification of immunoblots showing the relative nitrotyrosine/SERCA for each group of EDLs tested. *p<0.01 compared to non-cancer controls as analyzed by ANOVA. […]
Quantification of RyR1 skeletal channel nitrosylation, oxidation and phosphorylation by protein kinase A (PKA) are performed as described (Bellinger et al., 2009; Bellinger et al., 2008b).
Quantification of depletion of the channel stabilizing subunit calstabin 1 (FKBP12) from skeletal RyR1 by immunoprecipitation techniques are performed as described (Marx et al., 2000). […]

PC-3 bone metastases = assay: PC-3 prostate cancer bone metastases in mice; format: in vivo; settings: osteolytic model; X-ray, osteolytic lesion area, survival
Source text: For all mouse experiments, N=15 for each group of mice for tumors inoculated in the left cardiac ventricle (PC-3) or intratibially (LuCAP23.1) based on power analysis detailed below. Male nude mice are housed in laminar flow isolated hoods with water supplemented with vitamin K and autoclaved mouse chow provided ad libitum. Cells are introduced into mice at 4 wks of age. Animals are anesthetized with ketamine/xylazine and positioned ventral side up.
Multiple modalities of bone imaging including X-ray and μCT are used to longitudinally monitor the bone lesions and confirmed by histology and quantitative histomorphometry as previously described (Dunn et al., 2009; Guise et al., 1996b; Yin et al., 1999). Muscle mass are followed serially in vivo using the Piximus II system (Wiren et al., 2011) and microCT (Manske et al., 2011).

[3] = co-administration of S107 and SD208 in tumor bearing mice; format: in vivo; settings: S107 in drinking water about 50 mg/kg/day
Protocol: For example, administering the TGFbeta kinase inhibitor SD208 prevents oxidation of RyR1 and SERCA in skeletal muscles from tumor bearing mice, thus increasing muscle specific force production and grip strength in these mice. The co-administration of S107 further inhibits SR Ca^2+ leak by reducing the stress-induced depletion of calstabin from the RyR channel complex. […] Thus, when these are co-administered, the benzothiazepine derivative is administered at a dosage of between about 20 mg/kg/day and about 100 mg/kg/day and the inhibitor is administered in an amount of about 10 mg/kg/day and about 50 mg/kg/day. The ratio of the amount of benzothiazepine derivative to inhibitor in the co-administered formulation should be between 1:1 to 5:1 and preferably 1.3:1 to 2.5:1. Also, the benzothiazepine and inhibitor can be administered at the same time in a single formulation or sequentially if each is present in a separate formulation.

[4] = tested on: LuCaP 23.1 human prostate cancer osteoblastic xenograft; assay: LuCaP 23.1 osteoblastic prostate cancer xenograft in tibia of nude mice; format: in vivo
Source text: Four-week old, male nude mice were inoculated into the tibia with LuCaP 23.1 human prostate cancer osteoblastic xenograft (n=14-15/group).

[5] = EDL muscle specific force in mice with PC-3 prostate cancer bone metastases; format: in vivo; settings: hypogonadal mice with PC-3 prostate cancer metastatic to bone
Protocol: as §1, with “antibodies. Immunoblots developed using anti-RyR (clone 34C, 1:5,000), anti-Cys-NO (1:1000, Sigma, St. Louis, Mo.), anti-DNP (to determine RyR1 oxidation. 1:250), and anticalstabin (1:2500).” for “antibodies.”
S107 is administered in the drinking water at a dose of 50 mg/kg/d, water consumption is monitored and plasma drug levels determined. […]

1205Lu melanoma cells = assay: 1205Lu melanoma metastasis in nude mice; format: in vivo
Source text: (§2) TGFbeta derived from bone fuels melanoma bone metastasis by inducing tumor secretion of pro-metastatic factors that act on bone cells to change the skeletal microenvironment. […] Hfg is active orally and by intraperitoneal injection, and it has completed Phase I clinical trials in cancer patients. It suppresses the phosphorylation and activation of Smad2 and Smad3 by inducting of Smad7. Overexpression of inhibitory Smad7 has been associated with a reduction on invasive capacity in vitro and anchorage-independent growth, and delays subcutaneous tumor growth in nude mice. The present inventors have shown that Smad7 overexpression decreased melanoma bone metastasis, thus is useful for treating and/or preventing muscle weakness and atrophy as well as other muscle related side effects in cancer patients.

human melanoma cells = assay: Hfg treatment of human melanoma cells; format: cell-based
Source text: as §2

RyR [6] = settings: cited from earlier work
RyR1 [7] = molecular target: T1, RyR1 (Mus musculus, UniProt E9PZQ0); design: in a mouse model of aging, oxidation of skeletal muscle RyR1 causes depletion of the stabilizing subunit calstabin1 (FKBP12); from tissue; host or cells: skeletal muscle of aged (2 yr old) mice; settings: mouse model of aging; cited from earlier work
RyR [8] = assay: S107 blood brain barrier crossing and calstabin binding to RyR in brain in vivo
Source text: Data from heart and soleus muscle are also illustrated.
Cardiac muscle RyR2 is PKA hyperphosphorylated, oxidized, nitrosylated and depleted of calstabin2 in animal models of heart failure (HF) and in the hearts of patients with HF. […] Compounds of formula I-o, which share a common structure with S107, are also expected to have similar activities. This advantage is expected to enhance the ability of the TGFbeta inhibitor to be available to act upon most body tissues for improved effectiveness.

RyR1 [9] = molecular target: T1, RyR1; design: from tissue; host or cells: skeletal muscle of mdx mice; settings: mdx model of DMD; cited from earlier work
RyR2 = settings: animals; cited from earlier work

T1 sequence (E9PZQ0 whole entry): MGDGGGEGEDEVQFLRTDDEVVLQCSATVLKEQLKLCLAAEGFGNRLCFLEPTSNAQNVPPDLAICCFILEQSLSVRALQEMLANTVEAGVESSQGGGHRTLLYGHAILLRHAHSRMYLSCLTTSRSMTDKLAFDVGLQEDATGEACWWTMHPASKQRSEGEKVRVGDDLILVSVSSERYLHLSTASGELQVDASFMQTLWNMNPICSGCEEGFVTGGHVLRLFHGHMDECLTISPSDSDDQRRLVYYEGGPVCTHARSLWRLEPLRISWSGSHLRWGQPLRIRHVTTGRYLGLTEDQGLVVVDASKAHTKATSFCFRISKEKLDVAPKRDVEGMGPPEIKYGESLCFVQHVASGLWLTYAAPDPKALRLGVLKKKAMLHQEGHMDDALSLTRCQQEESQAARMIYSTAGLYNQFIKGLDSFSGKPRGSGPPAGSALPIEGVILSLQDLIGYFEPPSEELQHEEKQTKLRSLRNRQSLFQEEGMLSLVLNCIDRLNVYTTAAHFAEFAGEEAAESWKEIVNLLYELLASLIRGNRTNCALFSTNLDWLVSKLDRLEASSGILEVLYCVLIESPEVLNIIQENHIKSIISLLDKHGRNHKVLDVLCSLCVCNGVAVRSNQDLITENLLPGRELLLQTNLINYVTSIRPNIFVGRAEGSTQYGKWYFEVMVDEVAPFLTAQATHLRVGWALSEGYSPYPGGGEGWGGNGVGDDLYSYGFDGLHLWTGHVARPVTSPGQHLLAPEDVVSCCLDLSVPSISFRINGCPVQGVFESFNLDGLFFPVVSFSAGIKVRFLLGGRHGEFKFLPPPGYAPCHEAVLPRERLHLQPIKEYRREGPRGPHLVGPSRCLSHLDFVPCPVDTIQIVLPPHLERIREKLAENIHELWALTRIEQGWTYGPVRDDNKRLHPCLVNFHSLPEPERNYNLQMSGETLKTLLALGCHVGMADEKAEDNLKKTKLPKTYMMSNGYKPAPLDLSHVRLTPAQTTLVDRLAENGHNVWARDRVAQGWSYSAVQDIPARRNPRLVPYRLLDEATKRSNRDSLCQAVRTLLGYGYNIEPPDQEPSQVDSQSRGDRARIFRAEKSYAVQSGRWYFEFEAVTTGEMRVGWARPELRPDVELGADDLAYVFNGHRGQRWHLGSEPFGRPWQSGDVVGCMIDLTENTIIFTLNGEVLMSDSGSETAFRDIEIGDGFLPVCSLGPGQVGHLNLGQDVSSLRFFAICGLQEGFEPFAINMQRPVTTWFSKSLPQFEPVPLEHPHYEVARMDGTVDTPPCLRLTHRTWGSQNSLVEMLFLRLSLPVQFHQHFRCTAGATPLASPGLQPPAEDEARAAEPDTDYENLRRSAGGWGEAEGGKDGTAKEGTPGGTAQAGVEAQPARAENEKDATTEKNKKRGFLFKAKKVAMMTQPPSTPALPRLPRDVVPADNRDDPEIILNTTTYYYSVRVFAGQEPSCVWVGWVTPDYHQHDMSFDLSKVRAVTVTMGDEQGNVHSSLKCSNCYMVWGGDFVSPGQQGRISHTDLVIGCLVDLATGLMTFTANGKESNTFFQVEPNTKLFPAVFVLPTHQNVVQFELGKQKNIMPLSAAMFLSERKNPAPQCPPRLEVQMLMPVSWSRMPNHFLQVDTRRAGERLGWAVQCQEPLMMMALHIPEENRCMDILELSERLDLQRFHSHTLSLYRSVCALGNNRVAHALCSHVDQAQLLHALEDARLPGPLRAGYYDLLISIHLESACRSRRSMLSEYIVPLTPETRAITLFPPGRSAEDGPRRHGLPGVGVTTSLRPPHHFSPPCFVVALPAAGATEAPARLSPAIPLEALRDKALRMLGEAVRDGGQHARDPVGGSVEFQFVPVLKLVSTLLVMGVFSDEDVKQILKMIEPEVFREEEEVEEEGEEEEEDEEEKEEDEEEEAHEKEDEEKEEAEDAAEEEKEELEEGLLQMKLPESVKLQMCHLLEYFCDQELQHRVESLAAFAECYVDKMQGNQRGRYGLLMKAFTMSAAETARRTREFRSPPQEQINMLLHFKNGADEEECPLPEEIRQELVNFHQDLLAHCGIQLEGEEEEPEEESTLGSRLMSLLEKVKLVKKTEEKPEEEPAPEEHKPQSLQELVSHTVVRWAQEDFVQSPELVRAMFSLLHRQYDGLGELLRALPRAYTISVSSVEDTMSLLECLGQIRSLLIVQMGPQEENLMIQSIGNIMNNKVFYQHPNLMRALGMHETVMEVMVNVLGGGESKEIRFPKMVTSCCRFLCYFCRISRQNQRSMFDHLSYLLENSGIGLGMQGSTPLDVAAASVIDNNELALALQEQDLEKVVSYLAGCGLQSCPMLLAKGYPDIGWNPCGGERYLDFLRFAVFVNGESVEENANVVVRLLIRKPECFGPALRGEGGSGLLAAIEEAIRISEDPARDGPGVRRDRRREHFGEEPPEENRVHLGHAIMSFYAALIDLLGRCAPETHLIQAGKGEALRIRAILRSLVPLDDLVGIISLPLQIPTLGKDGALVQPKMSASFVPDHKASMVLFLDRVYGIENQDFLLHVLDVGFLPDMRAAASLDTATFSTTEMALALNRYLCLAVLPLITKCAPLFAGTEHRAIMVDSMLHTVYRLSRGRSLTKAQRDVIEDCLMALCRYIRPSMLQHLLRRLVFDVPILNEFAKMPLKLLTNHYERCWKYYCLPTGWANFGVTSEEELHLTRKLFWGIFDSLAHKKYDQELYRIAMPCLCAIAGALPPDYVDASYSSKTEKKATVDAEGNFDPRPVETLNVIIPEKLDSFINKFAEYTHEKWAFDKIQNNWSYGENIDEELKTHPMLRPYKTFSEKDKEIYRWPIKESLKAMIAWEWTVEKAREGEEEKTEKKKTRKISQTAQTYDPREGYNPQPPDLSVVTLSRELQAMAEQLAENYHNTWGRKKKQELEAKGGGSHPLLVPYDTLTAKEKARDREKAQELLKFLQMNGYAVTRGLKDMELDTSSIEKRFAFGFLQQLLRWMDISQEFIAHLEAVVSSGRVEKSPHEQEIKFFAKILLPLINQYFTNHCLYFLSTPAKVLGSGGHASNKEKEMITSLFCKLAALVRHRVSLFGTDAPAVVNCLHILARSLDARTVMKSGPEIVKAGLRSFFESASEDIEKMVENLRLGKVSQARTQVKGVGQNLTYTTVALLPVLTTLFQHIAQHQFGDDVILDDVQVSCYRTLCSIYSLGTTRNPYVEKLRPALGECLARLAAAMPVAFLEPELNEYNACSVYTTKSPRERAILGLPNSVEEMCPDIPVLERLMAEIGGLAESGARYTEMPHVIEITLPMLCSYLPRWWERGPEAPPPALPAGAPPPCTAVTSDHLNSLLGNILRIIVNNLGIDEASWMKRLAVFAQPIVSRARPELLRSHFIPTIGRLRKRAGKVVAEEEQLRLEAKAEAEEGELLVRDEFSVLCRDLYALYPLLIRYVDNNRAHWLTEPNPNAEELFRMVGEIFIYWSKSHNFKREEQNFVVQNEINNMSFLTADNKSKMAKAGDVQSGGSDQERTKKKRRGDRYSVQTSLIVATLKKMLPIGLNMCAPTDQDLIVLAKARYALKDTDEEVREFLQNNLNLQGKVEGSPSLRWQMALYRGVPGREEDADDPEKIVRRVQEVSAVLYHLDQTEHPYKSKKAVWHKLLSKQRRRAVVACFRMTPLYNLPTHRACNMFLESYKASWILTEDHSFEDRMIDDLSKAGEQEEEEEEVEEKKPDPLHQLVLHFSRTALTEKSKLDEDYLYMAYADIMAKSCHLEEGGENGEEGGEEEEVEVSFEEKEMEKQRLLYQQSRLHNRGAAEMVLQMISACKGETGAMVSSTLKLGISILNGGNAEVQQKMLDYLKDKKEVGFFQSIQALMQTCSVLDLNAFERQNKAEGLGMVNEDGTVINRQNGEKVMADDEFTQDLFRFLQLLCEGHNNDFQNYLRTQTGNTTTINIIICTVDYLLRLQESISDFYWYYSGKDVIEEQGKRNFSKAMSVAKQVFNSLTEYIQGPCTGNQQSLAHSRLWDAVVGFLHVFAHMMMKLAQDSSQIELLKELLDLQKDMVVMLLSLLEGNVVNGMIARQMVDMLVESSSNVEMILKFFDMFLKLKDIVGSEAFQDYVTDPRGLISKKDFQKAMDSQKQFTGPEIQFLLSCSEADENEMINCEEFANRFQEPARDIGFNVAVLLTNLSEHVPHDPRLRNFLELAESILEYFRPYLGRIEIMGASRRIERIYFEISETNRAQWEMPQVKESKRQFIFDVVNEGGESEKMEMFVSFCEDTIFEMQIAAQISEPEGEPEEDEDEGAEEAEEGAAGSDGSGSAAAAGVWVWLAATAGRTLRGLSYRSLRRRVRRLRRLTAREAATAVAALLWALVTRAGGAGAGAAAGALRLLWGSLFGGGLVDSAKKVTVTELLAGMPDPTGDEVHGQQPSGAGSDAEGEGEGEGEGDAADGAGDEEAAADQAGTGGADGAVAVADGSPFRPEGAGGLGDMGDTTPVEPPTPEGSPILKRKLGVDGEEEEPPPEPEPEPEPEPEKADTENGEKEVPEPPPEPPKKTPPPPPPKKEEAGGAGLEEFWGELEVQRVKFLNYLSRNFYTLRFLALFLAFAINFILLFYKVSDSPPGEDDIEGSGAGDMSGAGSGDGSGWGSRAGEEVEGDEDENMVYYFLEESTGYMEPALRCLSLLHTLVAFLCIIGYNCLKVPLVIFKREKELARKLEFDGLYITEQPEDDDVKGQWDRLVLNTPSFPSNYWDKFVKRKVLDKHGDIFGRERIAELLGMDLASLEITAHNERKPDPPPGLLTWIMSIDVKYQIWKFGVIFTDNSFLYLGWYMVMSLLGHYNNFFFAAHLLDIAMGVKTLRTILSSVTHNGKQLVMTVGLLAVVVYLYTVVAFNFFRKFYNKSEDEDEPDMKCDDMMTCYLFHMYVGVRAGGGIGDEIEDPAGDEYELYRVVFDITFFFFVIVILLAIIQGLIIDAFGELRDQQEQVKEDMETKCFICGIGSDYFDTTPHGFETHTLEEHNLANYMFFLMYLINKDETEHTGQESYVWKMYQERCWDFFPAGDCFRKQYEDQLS
T1 sequence (P26883 2-108 partner limits assumed): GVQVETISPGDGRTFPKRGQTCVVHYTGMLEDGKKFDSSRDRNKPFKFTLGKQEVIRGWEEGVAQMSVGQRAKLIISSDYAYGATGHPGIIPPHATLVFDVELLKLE

denosumab: inhibitor of bone resorption
skeletal morbidity [1]: reduce skeletal morbidity

Fc1ccc(Cl)cc1-c1nc(Nc2ccncc2)c2nccnc2n1 [SD-208]
skeletal muscle RyR1 oxidation, nitrosylation and depletion of calstabin 1 (RyR1 [2]): prevented oxidation/nitrosylation/calstabin1 depletion from RyR1; also recorded: prevented oxidation of RyR1
prevention of PC-3 bone metastases (PC-3 bone metastases): highly effective to prevent bone metastases due to PC-3; also recorded: prevents PC-3 bone metastases
effect of oral SD208 about 30 mg/kg/day co-administered with S107 [3]: same effects as administering SD208 at a dosage of about 60 mg/kg/day
bone formation and tumor growth in LuCaP 23.1 ([4]; 50 or 150 mg/kg/day po, from 12 weeks post inoculation): does not increase bone formation or tumor growth
efficacy against LuCAP23.1 bone metastases ([4]; osteoblastic model): not effective against LuCAP23.1 bone metastases
muscle (EDL) specific force production [5]: improved muscle specific force production

O=C(CC1NCCCC1O)Cn1cnc2cc(Br)c(Cl)cc2c1=O (stereo not shown) [Halofuginone]
osteolysis in mice with established bone metastasis (1205Lu melanoma cells; assessed by radiography, vs placebo): significantly less osteolysis than mice receiving placebo
bone metastasis, preventive protocol (1205Lu melanoma cells; nude mice inoculated with 1205Lu melanoma cells): inhibited bone metastasis
cell proliferation (human melanoma cells): inhibited cell proliferation
expression of TGFbeta target genes (PTHrP, CTGF, CXCR4, IL11) (human melanoma cells): reducing expression of TGFbeta target genes

COc1ccc2c(c1)CN(C)CCS2 [S107]
specificity (RyR [6]): RyR specific
SR Ca2+ leak (Ca2+ sparks, channel open probability) (RyR1 [7]): reduced SR Ca^2+ leak
exercise capacity (RyR1 [7]): improved
muscle force production (RyR1 [7]): improved muscle force production
oxidation induced depletion of calstabin1 from RyR1 (RyR1 [7]): prevented oxidation induced depletion of calstabin1 from RyR1
tetanic [Ca2+] (RyR1 [7]): increased tetanic [Ca^2+]
crossing of the blood brain barrier (RyR [8]): crosses the blood brain barrier
binding of calstabin to RyR in the brain (RyR [8]; mid-section and cerebellum): enhances binding of calstabin to a RyR in the brain
grip strength (RyR1 [9]): improves grip strength
muscle damage (RyR1 [9]): reduced muscle damage
HF progression (RyR2): inhibits HF progression
